ChEMBL document CHEMBL1201862, “PubChem BioAssay data set” (2004)
Structures can show the parent of a compound that is named as a salt. The source made the active and inactive calls.

Columns and labels:
[1] = target: Peroxisome proliferator-activated receptor gamma/Nuclear receptor coactivator 1 (Homo sapiens, UniProt P37231); experiment: (§1) TR-FRET dose response biochemical High Throughput Screening assay for agonists of the steroid receptor coactivator 1 (SRC-1) recruitment by the peroxisome proliferator-activated receptor gamma (PPAR gamma): non-selective agonists. [Related pubchem assays (depositor defined):AID1300, AID1808, AID504735, AID631]; type: protein assay
Peroxisome proliferator-activated receptor gamma/Nuclear receptor coactivator 1, sequence (P37231 whole entry): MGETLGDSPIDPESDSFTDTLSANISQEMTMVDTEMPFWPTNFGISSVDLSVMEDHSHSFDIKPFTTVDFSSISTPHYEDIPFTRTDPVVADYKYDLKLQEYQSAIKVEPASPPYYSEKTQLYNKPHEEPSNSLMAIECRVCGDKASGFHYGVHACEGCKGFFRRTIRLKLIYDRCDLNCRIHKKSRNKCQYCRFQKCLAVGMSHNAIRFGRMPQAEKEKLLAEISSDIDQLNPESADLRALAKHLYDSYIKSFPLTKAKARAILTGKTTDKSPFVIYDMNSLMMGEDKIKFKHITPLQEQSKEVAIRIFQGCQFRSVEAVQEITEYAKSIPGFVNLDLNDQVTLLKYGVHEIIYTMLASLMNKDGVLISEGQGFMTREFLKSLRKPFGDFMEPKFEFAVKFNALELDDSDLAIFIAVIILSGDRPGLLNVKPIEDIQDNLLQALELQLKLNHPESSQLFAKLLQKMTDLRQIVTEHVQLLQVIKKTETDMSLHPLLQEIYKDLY
Peroxisome proliferator-activated receptor gamma/Nuclear receptor coactivator 1, sequence (Q15788 whole entry, further chain): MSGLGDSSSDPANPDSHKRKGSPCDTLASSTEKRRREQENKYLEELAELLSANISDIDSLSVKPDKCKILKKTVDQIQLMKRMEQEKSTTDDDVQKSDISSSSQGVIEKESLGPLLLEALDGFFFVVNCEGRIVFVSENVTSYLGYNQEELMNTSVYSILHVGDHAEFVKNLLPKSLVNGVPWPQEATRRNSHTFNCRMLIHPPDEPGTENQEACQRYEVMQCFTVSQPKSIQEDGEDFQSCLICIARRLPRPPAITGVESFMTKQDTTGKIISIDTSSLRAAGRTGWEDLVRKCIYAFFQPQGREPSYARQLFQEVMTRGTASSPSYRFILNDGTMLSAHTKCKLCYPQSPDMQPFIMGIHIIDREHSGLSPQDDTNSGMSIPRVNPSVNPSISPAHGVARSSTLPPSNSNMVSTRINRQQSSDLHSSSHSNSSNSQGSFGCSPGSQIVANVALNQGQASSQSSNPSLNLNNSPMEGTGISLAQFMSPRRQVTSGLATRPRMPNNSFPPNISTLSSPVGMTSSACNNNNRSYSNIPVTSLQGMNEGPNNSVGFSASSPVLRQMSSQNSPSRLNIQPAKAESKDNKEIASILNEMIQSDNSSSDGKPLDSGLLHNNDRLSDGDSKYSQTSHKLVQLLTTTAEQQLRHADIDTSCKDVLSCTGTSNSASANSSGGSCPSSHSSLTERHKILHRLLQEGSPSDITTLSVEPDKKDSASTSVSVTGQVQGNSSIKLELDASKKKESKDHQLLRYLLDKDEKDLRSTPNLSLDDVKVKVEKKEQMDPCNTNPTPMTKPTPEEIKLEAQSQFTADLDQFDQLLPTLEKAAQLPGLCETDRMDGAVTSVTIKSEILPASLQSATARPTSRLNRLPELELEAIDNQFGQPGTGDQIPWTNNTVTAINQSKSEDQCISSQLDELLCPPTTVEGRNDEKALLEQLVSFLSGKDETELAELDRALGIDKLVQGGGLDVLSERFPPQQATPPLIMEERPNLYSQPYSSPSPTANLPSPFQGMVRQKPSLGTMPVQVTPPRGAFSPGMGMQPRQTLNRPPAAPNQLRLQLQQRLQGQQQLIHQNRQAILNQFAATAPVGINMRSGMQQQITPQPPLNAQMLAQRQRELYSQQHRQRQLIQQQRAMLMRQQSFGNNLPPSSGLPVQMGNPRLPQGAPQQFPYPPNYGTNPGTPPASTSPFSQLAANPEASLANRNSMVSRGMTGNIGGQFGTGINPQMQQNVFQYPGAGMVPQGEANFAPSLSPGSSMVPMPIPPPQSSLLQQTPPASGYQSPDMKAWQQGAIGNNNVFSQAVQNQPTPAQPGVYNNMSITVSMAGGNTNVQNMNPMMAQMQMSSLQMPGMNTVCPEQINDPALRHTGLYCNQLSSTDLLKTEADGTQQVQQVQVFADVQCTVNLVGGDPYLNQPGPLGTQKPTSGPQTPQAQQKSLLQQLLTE

[2] = target: Peroxisome proliferator-activated receptor gamma/Nuclear receptor coactivator 3 (Homo sapiens, UniProt P37231); experiment: as §1, with “3 (SRC-3)” for “1 (SRC-1)”, “assays: 1301 (Confirmation screen.), 1048 (Primary screen.)]” for “assays (depositor defined):AID1300, AID1808, AID504735, AID631]”; type: functional
Peroxisome proliferator-activated receptor gamma/Nuclear receptor coactivator 3, sequence (P37231 whole entry): as the sequence (P37231 whole entry) above
Peroxisome proliferator-activated receptor gamma/Nuclear receptor coactivator 3, sequence (Q9Y6Q9 whole entry, further chain): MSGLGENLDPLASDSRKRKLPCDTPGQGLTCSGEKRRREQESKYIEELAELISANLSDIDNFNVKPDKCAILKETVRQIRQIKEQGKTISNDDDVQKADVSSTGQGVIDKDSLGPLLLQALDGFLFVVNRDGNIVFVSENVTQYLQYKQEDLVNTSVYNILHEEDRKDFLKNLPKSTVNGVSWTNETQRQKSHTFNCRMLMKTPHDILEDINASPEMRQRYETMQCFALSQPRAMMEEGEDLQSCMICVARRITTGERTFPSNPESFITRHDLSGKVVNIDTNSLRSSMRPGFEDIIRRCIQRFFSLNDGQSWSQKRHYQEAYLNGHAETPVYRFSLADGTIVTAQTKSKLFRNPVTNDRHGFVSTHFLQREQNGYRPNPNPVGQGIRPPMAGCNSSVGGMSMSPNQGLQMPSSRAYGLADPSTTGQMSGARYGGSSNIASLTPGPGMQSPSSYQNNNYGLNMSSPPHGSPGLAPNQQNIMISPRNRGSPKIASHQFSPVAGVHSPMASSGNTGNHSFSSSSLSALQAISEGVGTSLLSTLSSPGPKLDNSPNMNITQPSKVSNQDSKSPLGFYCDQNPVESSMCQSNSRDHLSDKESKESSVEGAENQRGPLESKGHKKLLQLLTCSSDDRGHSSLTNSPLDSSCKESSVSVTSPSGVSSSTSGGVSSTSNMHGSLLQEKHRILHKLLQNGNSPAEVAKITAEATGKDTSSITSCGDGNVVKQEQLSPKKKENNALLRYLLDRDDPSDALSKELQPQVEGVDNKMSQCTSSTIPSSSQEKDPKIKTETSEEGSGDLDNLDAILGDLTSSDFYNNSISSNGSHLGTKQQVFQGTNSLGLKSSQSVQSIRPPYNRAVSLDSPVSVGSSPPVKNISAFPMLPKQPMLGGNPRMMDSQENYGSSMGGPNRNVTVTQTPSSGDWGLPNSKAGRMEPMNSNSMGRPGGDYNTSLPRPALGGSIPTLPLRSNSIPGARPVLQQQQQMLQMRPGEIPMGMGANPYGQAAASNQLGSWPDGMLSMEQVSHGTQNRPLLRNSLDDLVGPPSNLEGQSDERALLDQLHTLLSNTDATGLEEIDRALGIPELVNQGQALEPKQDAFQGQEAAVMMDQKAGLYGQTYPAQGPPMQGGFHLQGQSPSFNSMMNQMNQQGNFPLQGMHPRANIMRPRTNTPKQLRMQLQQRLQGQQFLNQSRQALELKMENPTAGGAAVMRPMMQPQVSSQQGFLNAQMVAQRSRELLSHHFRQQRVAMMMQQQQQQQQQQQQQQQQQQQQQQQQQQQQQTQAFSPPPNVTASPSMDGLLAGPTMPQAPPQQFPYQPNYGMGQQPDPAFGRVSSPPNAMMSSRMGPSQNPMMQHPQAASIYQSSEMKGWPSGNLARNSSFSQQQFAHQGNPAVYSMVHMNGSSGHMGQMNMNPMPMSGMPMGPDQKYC

[3] = target: Peroxisome proliferator-activated receptor gamma/Nuclear receptor coactivator 2 (Homo sapiens, UniProt P37231); experiment: TR-FRET dose response biochemical High Throughput Screening assay for agonists of the steroid receptor coactivator 2 (SRC-2) recruitment by the peroxisome proliferator-activated receptor gamma (PPAR gamma): non-selective agonists. [Related pubchem assays: 1297, 1032 ]; type: functional
[4] = growth inhibition of yeast DHODH-expressing 3D7 parasites – SYBR Green, dry powder samples, dose response (AID 1159570); type: functional, cell-based;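 note: parasite growth measured after 72 hours of compound exposure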
[5] = toxicity to human HepG2 hepatoma cells – cell-based, plate reader, dry powder samples, cytotoxicity control, dose response (AID 1159569); type: functional;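 note: inhibitor potency with signal falling toward the positive control level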
[6] = P. falciparum Dd2 growth inhibitors, dose response, SYBR Green, cherry-picked samples (AID 1159567); type: functional, cell-based
[7] = Dd2 malaria parasite growth inhibition potency – SYBR Green, dry powder samples, dose response (AID 1159566); type: functional, cell-based;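 note: potency for growth inhibition with lower SYBR green DNA signal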
[8] = toxicity to human hepatoma HepG2 cells – cell-based, cherry-picked samples, cytotoxicity control, dose response (AID 1159577); type: functional
[9] = growth inhibition of PfATP4-mutant resistant parasites – NITD609-resistant line, SYBR Green, dry powder, dose response (AID 1159571); type: functional, cell-based;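 note: parasites synchronized at ring stage by sorbitol before testing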
[10] = target: Voltage-gated inwardly rectifying potassium channel KCNH2 (Homo sapiens, UniProt Q12809); details: Potency;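 note: confirmatory quantitative high-throughput screen measuring inhibition of hERG channel activity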
Voltage-gated inwardly rectifying potassium channel KCNH2, sequence (Q12809 whole entry): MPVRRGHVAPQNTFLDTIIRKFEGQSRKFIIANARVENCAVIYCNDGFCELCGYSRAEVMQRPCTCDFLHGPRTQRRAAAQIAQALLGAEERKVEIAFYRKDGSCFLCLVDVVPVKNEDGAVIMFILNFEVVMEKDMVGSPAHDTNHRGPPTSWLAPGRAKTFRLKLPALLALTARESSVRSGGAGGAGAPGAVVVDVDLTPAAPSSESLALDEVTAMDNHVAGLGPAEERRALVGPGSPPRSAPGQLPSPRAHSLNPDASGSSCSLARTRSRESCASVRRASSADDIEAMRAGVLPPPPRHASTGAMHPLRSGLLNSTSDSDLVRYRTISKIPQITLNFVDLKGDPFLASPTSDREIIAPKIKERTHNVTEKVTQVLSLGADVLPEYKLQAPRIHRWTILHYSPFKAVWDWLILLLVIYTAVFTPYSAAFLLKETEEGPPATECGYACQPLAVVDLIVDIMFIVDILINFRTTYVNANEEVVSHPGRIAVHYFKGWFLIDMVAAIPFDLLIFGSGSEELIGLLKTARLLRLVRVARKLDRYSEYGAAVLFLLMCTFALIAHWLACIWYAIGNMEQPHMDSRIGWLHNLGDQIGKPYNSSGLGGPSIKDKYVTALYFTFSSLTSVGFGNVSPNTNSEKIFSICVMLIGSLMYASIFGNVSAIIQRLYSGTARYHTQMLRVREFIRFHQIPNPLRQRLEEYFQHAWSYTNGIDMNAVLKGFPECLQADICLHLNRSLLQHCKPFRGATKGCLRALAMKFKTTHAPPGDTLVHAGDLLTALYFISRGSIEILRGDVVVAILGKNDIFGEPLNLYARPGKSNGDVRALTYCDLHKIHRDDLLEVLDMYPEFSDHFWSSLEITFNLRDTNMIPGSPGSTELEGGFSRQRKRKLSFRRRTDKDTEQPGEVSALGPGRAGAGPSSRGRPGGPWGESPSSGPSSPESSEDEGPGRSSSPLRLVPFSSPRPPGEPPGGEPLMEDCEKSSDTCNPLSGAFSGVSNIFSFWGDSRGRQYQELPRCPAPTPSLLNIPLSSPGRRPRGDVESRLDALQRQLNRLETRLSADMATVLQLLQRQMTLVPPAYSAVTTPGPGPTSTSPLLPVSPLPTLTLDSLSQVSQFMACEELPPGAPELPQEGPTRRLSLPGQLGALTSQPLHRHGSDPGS

[11] = microbe, parasite or virus in culture; type: functional; details: Mycobacterium tuberculosis
[12] = THP-1 cell cytotoxicity, dose response, cytotoxicity control for non-replicating M. tuberculosis project (AID 489025); type: functional
[13] = HepG2 cell cytotoxicity, dose response, cytotoxicity control for non-replicating M. tuberculosis project (AID 489018); type: functional; details: Mycobacterium tuberculosis
[14] = Vero E6 cell cytotoxicity, dose response, cytotoxicity control for non-replicating M. tuberculosis project, secondary assay (AID 492998); type: functional, VeroE6; details: Vero C1008
[15] = target: T1, Short transient receptor potential channel 4 (Mus musculus, UniProt Q9QUQ5); experiment: calcium entry via TRPC4 opening agents – cell-based, HEK293 TRPC4/mu-opioid, Fluo-4 calcium, dose response (AID 434937); type: functional
T1 sequence (Q9QUQ5 whole entry): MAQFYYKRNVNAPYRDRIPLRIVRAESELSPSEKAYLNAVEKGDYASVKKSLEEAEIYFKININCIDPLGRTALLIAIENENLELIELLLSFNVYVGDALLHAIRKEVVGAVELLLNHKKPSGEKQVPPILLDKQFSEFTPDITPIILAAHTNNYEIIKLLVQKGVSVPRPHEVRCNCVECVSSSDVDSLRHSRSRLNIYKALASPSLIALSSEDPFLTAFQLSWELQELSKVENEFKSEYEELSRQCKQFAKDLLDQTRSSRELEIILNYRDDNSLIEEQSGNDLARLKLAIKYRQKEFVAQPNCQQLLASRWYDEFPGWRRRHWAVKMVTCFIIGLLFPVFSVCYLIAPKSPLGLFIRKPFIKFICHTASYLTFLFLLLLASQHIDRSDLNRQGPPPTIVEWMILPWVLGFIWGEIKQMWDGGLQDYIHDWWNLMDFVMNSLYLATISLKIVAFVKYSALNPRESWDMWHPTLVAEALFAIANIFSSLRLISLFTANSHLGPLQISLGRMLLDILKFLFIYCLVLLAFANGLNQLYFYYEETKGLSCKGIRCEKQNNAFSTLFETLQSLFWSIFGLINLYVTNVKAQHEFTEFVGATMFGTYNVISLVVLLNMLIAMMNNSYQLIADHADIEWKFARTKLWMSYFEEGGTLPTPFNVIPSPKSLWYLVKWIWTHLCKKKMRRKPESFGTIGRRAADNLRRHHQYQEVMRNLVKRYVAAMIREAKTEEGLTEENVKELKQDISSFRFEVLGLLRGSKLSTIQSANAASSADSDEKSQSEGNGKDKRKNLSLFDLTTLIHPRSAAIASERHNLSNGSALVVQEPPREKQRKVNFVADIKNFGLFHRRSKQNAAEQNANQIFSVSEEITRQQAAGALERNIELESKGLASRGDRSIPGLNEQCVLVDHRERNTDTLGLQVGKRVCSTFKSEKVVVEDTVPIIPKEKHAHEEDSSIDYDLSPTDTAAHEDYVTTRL

cells = type: functional
[16] = HPDE-C7 pancreatic duct cell viability loss – fluorescence, HTS (AID 430); type: functional, cell-based; details: Homo sapiens
[17] = viability loss of HPDE-C7K cells – cell-based, fluorescence, HTS, primary screen (AID 431); type: functional; details: Homo sapiens
[18] = target: FAD-linked sulfhydryl oxidase ALR (Homo sapiens, UniProt P55789); experiment: ALR-catalysed DTT oxidation blockers – biochemical, H2O2 detection, luminescence, cherry-pick, dose response (AID 493248)
[19] = A Cell Based Secondary Assay To Explore Cytotoxicity of Compounds that Sensitize Mycobacterium Tuberculosis to Beta-Lactam Antibiotics.; type: functional
[20] = target: Dual specificity tyrosine-phosphorylation-regulated kinase 1A (Rattus norvegicus, UniProt Q63470); type: biochemical, Homo sapiens
[21] = target: Luciferin 4-monooxygenase (Photinus pyralis, UniProt P08659); experiment: Counter Screen for Luciferase-based Assay Positives. [Related pubchem assays: 620, 618, 411 ]
HT-1080 = experiment: HT1080 cell viability loss – fluorescence readout (AID 620); type: functional, cell-based; details: Homo sapiens
[22] = Trypanosoma cruzi growth suppression in host cells – NIH3T3 host cells, beta-gal luminescence, confirmation (AID 2044); type: functional, cell-based;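 note: intracellular parasites grown in NIH/3T3 mouse fibroblasts as host cells; luminescent beta-galactosidase reporter signal from transgenic T. cruzi replicating inside host cells; inhibitors lower the luminescence signal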
[23] = viability of PTEN-deleted HCT116 cells – cell-based, HCT116 PTEN knockout, dose response (AID 1047); type: functional;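 note: HCT116 colon tumor cells with PTEN knocked out; cells exposed to compound for 60 hours before readout; potency for loss of cell viability measured by luminescence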
[24] = NIH3T3 cell viability loss – ATP luminescence, mouse fibroblasts, counter-screen, dose response (AID 2010); type: functional, cell-based;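 note: cells exposed to compound for about 90 hours before reading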
[25] = viability of HCT116 lacking mutant beta-catenin – cell-based, human colon tumor, dose response (AID 1045); type: functional;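 note: HCT116 colon tumor cells with beta catenin knocked out; cells exposed to compound for 60 hours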

SMILES: O=C(c1cc2c(s1)-c1ccccc1OC2)N1CCN(c2ccccn2)CC1
- EC50 [1]: 33.7 µM (inactive)
- EC50 [2]: > 79.4 µM (not active)
- EC50 [3]: 23.2 µM (not active)

SMILES: COc1ccc(-c2ccc([C@H]3[C@H](C#N)N(C(=O)c4cccnc4)[C@H]3CO)cc2)cc1
- AC50 [4]: 1.15 µM (active)
- AC50 [5]: > 100 µM (inactive)
- AC50 [6]: 1.25 µM (active)
- AC50 [7]: 0.764 µM (active)
- AC50 [8]: > 42 µM (inactive)
- AC50 [9]: 0.586 µM (active)

SMILES: CC1(C)CCC2=C(O1)c1ccccc1C(=O)C2=O [LAPACHONE]
- AC50 [10]: 15.8 µM (inconclusive)

SMILES: Clc1ccc(Cl)c(-c2ccc(/C=N/c3nc[nH]n3)o2)c1
- EC50 [1]: 13.7 µM (inactive)
- EC50 [2]: > 79.4 µM (not active)
- EC50 [3]: 12.6 µM (not active)

SMILES: O=C(CCC1CCCC1)c1c(O)c2ccccc2oc1=O
- CC50 [11]: 15.4 µM (active)
- CC50 [12]: 23.5 µM (active)
- CC50 [13]: > 20 µM (active)
- CC50 [14]: 14.4 µM (active)
- EC50 [15]: 5.96 µM (active)
- IC50 (cells): 8.45 µM (active)

SMILES: CC(CN1c2ccccc2Sc2ccccc21)N(C)C (stereo unspecified) [PROMETHAZINE HYDROCHLORIDE]
- EC50 [16]: > 20 µM (not active)
- EC50 [17]: > 20 µM (not active)
- AC50 [18]: 0.367 µM (active)
- AC50 [10]: 15.8 µM (inconclusive)

SMILES: Cc1ccc(CN2C(=O)N/C(=C\c3ccc(-c4ccc(C(=O)O)cc4C)o3)C2=O)cc1
- CC50 [19]: > 40 µM (active)

SMILES: O=C(CSc1ncnc2c1oc1ccccc12)OCc1ccccc1
- EC50 [1]: > 2.94 µM (inactive)
- EC50 [2]: > 79.4 µM (not active)
- EC50 [3]: > 8.82 µM (not active)

SMILES: O=C(Nc1ccccc1Cl)c1csc(-c2cccnc2)n1
- CC50 [19]: > 40 µM (active)
- AC50 [20]: 0.493 µM (active)

SMILES: C/C=C/c1ccccc1[C@H]1[C@@H](C#N)N(c2nc(CC)cs2)[C@@H]1CO
- AC50 [6]: 3.11 µM (active)
- AC50 [8]: 21.4 µM (active)

SMILES: CCCCc1ccc(-c2nc(-c3ccncc3)no2)cc1
- EC50 [21]: 60.6 µM (active)
- EC50 (HT-1080): > 50 µM (not active)

SMILES: O=c1oc(-c2ccccc2F)nc2c1cnn2-c1ccccc1
- EC50 [1]: > 79.4 µM (inactive)
- EC50 [2]: > 79.4 µM (not active)
- EC50 [3]: > 79.4 µM (not active)

SMILES: CCOc1ccc(/N=c2\cc(-c3ccc(OC)cc3)oc3ccccc23)cc1
- CC50 [19]: > 40 µM (active)
- EC50 [22]: 2.64 µM (active)
- EC50 [23]: 47.5 µM (active)
- EC50 [24]: > 60 µM (not active)
- EC50 [25]: 60.6 µM (active)
